From US9663526B2, “Aminopyrimidinyl compounds” (Pfizer Inc., priority 2014, dated 2017)

How the values were obtained:
[1] = molecular target: recombinant human kinase domain of JAK2 (Homo sapiens (Human), UniProt O60674); experiment: JAK Caliper enzyme assay at 1 mM ATP (JAK2); assay type: biochemical;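 also: microfluidic mobility-shift read-out of fluorescent synthetic peptide phosphorylation, percent product converted from peak heights, room temperature, DMSO-only wells as uninhibited baseline, inhibition curve fit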
[2] = molecular target: recombinant human kinase domain of JAK3 (Homo sapiens (Human), UniProt P52333); experiment: JAK Caliper enzyme assay at 1 mM ATP (JAK3); assay type: biochemical; conditions: 1 mM ATP; read-out: IC50 (nM) JAK3;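 also: microfluidic mobility-shift readout of synthetic peptide phosphorylation, percent product converted from peak heights, normalized to DMSO-only wells as uninhibited baseline, room temperature incubation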
[3] = molecular target: recombinant human kinase domain of JAK1 (Homo sapiens (Human), UniProt P23458); experiment: JAK Caliper enzyme assay at 1 mM ATP (JAK1); assay type: biochemical; conditions: 1 mM ATP; read-out: IC50 (nM) JAK1;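 also: microfluidic mobility-shift readout of synthetic fluorescent peptide phosphorylation, percent product converted from peak height, inhibition relative to DMSO-only wells as uninhibited baseline, room temperature incubation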
[4] = tested on: interferon alpha signalling (TYK2 and JAK1), STAT3 phosphorylation; experiment: Human whole blood INFα induced STAT3 phosphorylation assay; assay type: cell-based; conditions: compound 60 minutes at 37° C., IFNα 5000 U/ml for 15 minutes, pSTAT3 in lymphocyte population by flow cytometry, read-out: HWB IFN alpha IC50;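 also: flow cytometry with anti-pSTAT3 staining, signal as percent-positive × mean fluorescence, baseline from unstimulated wells, 11-point dilution series, IC50 as inhibition of pSTAT3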
[5] = molecular target: recombinant human kinase domain of TYK2 (Homo sapiens (Human), UniProt P29597); experiment: JAK Caliper enzyme assay at 1 mM ATP (TYK2); assay type: biochemical; conditions: 1 mM ATP; read-out: IC50 (nM) TYK2;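 also: microfluidic mobility-shift readout of synthetic peptide phosphorylation by TYK2, tuned to 20–30% conversion at room temperature, reaction stopped with EDTA, DMSO-only wells as uninhibited baseline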
Sequence of recombinant human kinase domain of TYK2 (P29597 897-1176): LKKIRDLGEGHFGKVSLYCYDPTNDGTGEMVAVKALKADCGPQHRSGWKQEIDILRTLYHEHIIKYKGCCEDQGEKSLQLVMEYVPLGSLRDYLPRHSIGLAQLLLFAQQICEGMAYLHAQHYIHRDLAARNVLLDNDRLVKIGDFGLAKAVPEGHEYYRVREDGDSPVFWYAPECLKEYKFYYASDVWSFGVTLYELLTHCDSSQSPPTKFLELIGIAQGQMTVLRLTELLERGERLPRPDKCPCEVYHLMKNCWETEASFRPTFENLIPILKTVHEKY

Sequence of recombinant human kinase domain of JAK2 (O60674 849-1124): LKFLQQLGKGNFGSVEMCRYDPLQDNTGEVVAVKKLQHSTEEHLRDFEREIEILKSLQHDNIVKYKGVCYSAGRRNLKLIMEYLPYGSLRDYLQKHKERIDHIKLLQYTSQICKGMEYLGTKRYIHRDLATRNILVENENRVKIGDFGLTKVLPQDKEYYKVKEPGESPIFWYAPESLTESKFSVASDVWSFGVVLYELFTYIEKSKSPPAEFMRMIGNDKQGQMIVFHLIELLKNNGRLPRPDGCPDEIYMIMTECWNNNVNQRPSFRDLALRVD
Sequence of recombinant human kinase domain of JAK1 (P23458 875-1153): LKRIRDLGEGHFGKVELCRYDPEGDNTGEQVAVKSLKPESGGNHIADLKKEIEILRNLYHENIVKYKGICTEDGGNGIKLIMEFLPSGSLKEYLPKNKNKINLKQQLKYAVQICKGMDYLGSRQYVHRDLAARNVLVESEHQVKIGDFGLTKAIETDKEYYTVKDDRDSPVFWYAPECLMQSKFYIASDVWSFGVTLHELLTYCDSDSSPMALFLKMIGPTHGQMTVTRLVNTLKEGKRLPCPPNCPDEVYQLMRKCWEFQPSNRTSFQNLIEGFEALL
Sequence of recombinant human kinase domain of JAK3 (P52333 822-1111): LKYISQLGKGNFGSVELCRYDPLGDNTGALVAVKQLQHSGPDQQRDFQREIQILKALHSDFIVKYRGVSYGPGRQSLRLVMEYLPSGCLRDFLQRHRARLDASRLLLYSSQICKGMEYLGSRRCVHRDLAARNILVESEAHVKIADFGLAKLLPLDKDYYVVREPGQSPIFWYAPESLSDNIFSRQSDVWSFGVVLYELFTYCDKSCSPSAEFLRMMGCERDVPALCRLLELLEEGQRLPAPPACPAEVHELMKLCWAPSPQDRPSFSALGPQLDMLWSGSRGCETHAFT

SMILES	IC50 [1]	IC50 [2]	IC50 [3]	IC50 [4]	IC50 [5]
CCNC(=O)N1[C@@H]2CC[C@H]1CN(c1ccnc(Nc3cnc(C(=O)NC)c(Cl)c3)n1)C2 [Example 75, (1R,5S)-3-(2-{[5-chloro-6-(methylcarbamoyl)pyridin-3-yl]amino}pyrimidin-4-yl)-N-ethyl-3,8-diazabicyclo[3.2.1]octane-8-carboxamide]	1290 nM	> 10000 nM	462 nM	751 nM	66 nM
N#CCCN1[C@@H]2CC[C@H]1CN(c1ccnc(Nc3cn[nH]c3)n1)C2 [Example 79, 3-{(1R,5S)-3-[2-(1H-pyrazol-4-ylamino)pyrimidin-4-yl]-3,8-diazabicyclo[3.2.1]oct-8-yl}propanenitrile]	406 nM	8420 nM	38 nM	65 nM	34 nM
CC(CC#N)N1[C@@H]2CC[C@H]1CN(c1ccnc(Nc3cnn(C)c3)n1)C2 (stereo partly drawn) [Example 80, 3-[(1R,5S)-3-{2-[(1-methyl-1H-pyrazol-4-yl)amino]pyrimidin-4-yl}-3,8-diazabicyclo[3.2.1 l]oct-8-yl]butanenitrile]	436 nM	> 10000 nM	190 nM	112 nM	79 nM
Cn1cc(Nc2nccc(N3C[C@H]4CC[C@@H](C3)N4C3(CC#N)COC3)n2)cn1 [Example 84, {3-[(1R,5S)-3-{2-[(1-methyl-1H-pyrazol-4-yl)amino]pyrimidin-4-yl}-3,8-diazabicyclo[3.2.1]oct-8-yl]oxetan-3-yl}acetonitrile]	155 nM	> 10000 nM	141 nM	156 nM	62 nM
CCNC(=O)N1[C@@H]2CC[C@H]1CN(c1ccnc(Nc3cnc(C(=O)NC)c(F)c3)n1)C2 [Example 87, (1R,5S)—N-ethyl-3-(2-{[5-fluoro-6-(methylcarbamoyl)pyridin-3-yl]amino}pyrimidin-4-yl)-3,8-diazabicyclo[3.2.1]octane-8-carboxamide]	1790 nM	> 10000 nM	337 nM	582 nM	93 nM
CNC(=O)c1ncc(Nc2nccc(N3C[C@H]4CC[C@@H](C3)N4C(=O)NCC(F)(F)F)n2)cc1C [Example 89]	65 nM	4430 nM	10 nM	118 nM	9 nM
CCNC(=O)N1[C@@H]2CC[C@H]1CN(c1ccnc(Nc3cnc(C(=O)NC)c(C)c3)n1)C2 [Example 91, (1R,5S)—N-ethyl-3-(2-{[5-methyl-6-(methylcarbamoyl)pyridin-3-yl]amino}pyrimidin-4-yl)-3,8-diazabicyclo[3.2.1]octane-8-carboxamide]	513 nM	> 10000 nM	183 nM	195 nM	39 nM
Cn1cc(Nc2ncc(F)c(N3C[C@@]4(CO)C[C@@]4(NC(=O)[C@@H]4C[C@H]4C#N)C3)n2)cn1 [Example 110, (1R,2R)-2-cyano-N-[(1S,5S)-3-{5-fluoro-2-[(1-methyl-1H-pyrazol-4-yl)amino]pyrimidin-4-yl}-5-(hydroxymethyl)-3-azabicyclo[3.1.0]hex-1-yl]cyclopropanecarboxamide]	455 nM	928 nM	29 nM	146 nM	58 nM
CCNC(=O)c1ccc(Nc2ncc(F)c(N3CC4CC(C3)N4C(=O)C(C)(C)F)n2)cc1C [Example 112, N-ethyl-4-({5-fluoro-4-[6-(2-fluoro-2-methylpropanoyl)-3,6-diazabicyclo[3.1.1]hept-3-yl]pyrimidin-2-yl}amino)-2-methylbenzamide]	3040 nM	> 10000 nM	4070 nM	775 nM	21 nM
CCNC(=O)c1ccc(Nc2nccc(N3CC4CC(C3)N4C(=O)C3CC3)n2)cc1C [Example 113, 4-({4-[6-(cyclopropylcarbonyl)-3,6-diazabicyclo[3.1.1]hept-3-yl]pyrimidin-2-yl}amino)-N-ethyl-2-methylbenzamide]	7860 nM	> 10000 nM	8580 nM	939 nM	82 nM
CCNC(=O)c1ccc(Nc2nccc(N3CC4CC(C3)N4C(=O)C(C)(F)F)n2)cc1 [Example 114, 4-({4-[6-(2,2-difluoropropanoyl)-3,6-diazabicyclo[3.1.1]hept-3-yl]pyrimidin-2-yl}amino)-N-ethylbenzamide]	1860 nM	> 10000 nM	955 nM	166 nM	62 nM
CCNC(=O)c1ccc(Nc2nccc(N3CC4CC(C3)N4C(=O)C(F)(F)F)n2)cc1C [Example 115, N-ethyl-2-methyl-4-({4-[6-(trifluoroacetyl)-3,6-diazabicyclo[3.1.1]hept-3-yl]pyrimidin-2-yl}amino)benzamide]	3310 nM	> 10000 nM	3790 nM	234 nM	64 nM
